Experimental data: ChEMBL document CHEMBL1275338, “Design, synthesis and bioevaluation of dihydropyrazolo[3,4-b]pyridine and benzo[4,5]imidazo[1,2-a]pyrimidine compounds as dual KSP and Aurora-A kinase inhibitors for anti-cancer agents” (Bioorg Med Chem, 2010)

Key:
[1] = biological target: T1, Kinesin-like protein KIF11 (Homo sapiens, UniProt P52732); test: Inhibition of human Eg5 motor domain (residues 2-386) ATPase activity expressed in Escherichia coli assessed as release of inorganic phosphate after 30 mins
T1 sequence (P52732 whole entry): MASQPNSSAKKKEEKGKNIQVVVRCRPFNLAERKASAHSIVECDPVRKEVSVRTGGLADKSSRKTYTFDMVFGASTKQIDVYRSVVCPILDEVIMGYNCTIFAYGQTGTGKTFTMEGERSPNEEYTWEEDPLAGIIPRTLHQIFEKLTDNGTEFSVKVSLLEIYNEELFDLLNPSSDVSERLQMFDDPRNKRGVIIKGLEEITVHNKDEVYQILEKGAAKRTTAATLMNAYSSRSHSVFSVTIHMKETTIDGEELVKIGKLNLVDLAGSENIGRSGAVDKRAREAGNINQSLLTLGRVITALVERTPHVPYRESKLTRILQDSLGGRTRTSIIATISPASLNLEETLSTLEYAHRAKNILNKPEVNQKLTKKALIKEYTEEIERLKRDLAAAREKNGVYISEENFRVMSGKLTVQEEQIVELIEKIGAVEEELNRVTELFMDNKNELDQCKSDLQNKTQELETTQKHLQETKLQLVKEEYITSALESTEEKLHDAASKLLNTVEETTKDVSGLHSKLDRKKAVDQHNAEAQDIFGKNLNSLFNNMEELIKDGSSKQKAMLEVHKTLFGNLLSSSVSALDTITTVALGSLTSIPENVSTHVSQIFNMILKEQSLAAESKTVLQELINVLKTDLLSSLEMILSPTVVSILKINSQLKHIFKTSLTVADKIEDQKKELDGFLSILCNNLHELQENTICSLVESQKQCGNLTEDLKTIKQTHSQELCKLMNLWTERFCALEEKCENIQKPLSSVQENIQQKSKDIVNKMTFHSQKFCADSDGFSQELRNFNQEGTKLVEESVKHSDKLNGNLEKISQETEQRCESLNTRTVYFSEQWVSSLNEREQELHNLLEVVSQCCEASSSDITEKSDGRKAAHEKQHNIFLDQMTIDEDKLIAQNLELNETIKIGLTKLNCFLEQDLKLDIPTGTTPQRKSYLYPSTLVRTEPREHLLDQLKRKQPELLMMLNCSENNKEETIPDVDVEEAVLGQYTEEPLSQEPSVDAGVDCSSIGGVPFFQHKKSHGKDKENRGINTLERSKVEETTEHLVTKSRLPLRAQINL

Aurora kinase A = biological target: T2, Aurora kinase A (Homo sapiens, UniProt O14965); test: Inhibition of human purified recombinant aurora-A kinase
T2 sequence (O14965 whole entry): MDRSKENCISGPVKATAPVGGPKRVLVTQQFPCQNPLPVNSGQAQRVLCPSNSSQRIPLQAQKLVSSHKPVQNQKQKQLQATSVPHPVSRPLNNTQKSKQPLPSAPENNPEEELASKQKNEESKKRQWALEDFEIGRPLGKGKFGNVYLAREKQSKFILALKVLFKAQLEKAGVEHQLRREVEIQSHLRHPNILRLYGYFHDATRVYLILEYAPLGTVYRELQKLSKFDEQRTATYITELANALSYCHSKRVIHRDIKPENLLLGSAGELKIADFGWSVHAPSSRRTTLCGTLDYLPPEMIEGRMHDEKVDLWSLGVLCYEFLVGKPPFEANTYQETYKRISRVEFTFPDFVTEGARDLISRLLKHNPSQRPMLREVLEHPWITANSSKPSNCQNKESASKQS

HCT-116 [2] = test: cells; settings: Homo sapiens, HCT-116, 72 h
A2780 = test: cells; settings: Homo sapiens, A2780, 72 h
Description: Cytotoxicity against human A2780 cells after 72 hrs by MTT assay

HepG2 = test: cells; settings: Homo sapiens, HepG2, 72 h
Description: Cytotoxicity against human HepG2 cells after 72 hrs by MTT assay

HCT-116 [3] = test: Ratio of CPUYL064 IC50 to compound IC50 for human HCT116 cells

IC50 [1] [µM]	IC50 (Aurora kinase A) [µM]	IC50 (HCT-116 [2]) [µM]	IC50 (A2780) [µM]	IC50 (HepG2) [µM]	Compound	Ratio IC50 (HCT-116 [3])
0.17					CC1=C(C(=O)Nc2ccc(F)c(Cl)c2)C(c2ccccc2)c2c[nH]nc2N1 (configuration not stated)	
0.14					CC1=C(C(=O)Nc2ccc(F)cc2)C(c2ccccc2)c2c[nH]nc2N1 (configuration not stated)	
0.0025					COc1ccc(NC(=O)C2=C(C)Nc3n[nH]cc3C2c2cccs2)cc1 (configuration not stated)	
0.82					CC1=C(C(=O)Nc2ccc([N+](=O)[O-])cc2)C(c2cccs2)c2c[nH]nc2N1 (configuration not stated)	
0.32					CC1=C(C(=O)Nc2ccc(C(F)(F)F)cc2)C(c2cccs2)c2c[nH]nc2N1 (configuration not stated)	
0.0011					COc1ccc(NC(=O)C2=C(C)Nc3n[nH]cc3C2c2ccco2)cc1 (configuration not stated)	
2.76					CC1=C(C(=O)Nc2ccc([N+](=O)[O-])cc2)C(c2ccco2)c2c[nH]nc2N1 (configuration not stated)	
1.06					CC1=C(C(=O)Nc2ccc(C(F)(F)F)cc2)C(c2ccco2)c2c[nH]nc2N1 (configuration not stated)	
0.4					CC1=C(C(=O)Nc2ccc(F)c(Cl)c2)C(c2ccco2)c2c[nH]nc2N1 (configuration not stated)	
10.4					CC1=C(C(=O)Nc2ccc(F)cc2)C(c2ccco2)c2c[nH]nc2N1 (configuration not stated)	
2.46	7.58	8.71	9.34	4.97	COc1ccc(NC(=O)C2=C(C)Nc3nc4ccccc4n3C2c2ccco2)cc1 (configuration not stated)	
20.9	3	11.5	3.05	13.5	CC1=C(C(=O)Nc2ccc([N+](=O)[O-])cc2)C(c2ccco2)n2c(nc3ccccc32)N1 (configuration not stated)	
3.32	1.32	> 50			CC1=C(C(=O)Nc2ccc(C(F)(F)F)cc2)C(c2ccco2)n2c(nc3ccccc32)N1 (configuration not stated)	
0.96	5.73	10.9	> 50	26	CC1=C(C(=O)Nc2ccc(F)c(Cl)c2)C(c2ccco2)n2c(nc3ccccc32)N1 (configuration not stated)	
5.65	6.15	4.96	> 50	7.38	CC1=C(C(=O)Nc2ccc(F)cc2)C(c2ccco2)n2c(nc3ccccc32)N1 (configuration not stated)	2.5
0.18					CC1=C(C(=O)Nc2ccc(Cl)cc2)C(c2ccccc2)C2=C(CC(C)(C)CC2=O)N1 (configuration not stated)	
0.44					CC1=C(C(=O)Nc2ccc(F)c(Cl)c2)C(c2cccs2)c2c[nH]nc2N1 (configuration not stated)	
2.82					COc1ccc(NC(=O)C2=C(C)Nc3n[nH]cc3C2c2ccccc2)cc1 (configuration not stated)	
0.2					CC1=C(C(=O)Nc2ccc([N+](=O)[O-])cc2)C(c2ccccc2)c2c[nH]nc2N1 (configuration not stated)	
0.4					CC1=C(C(=O)Nc2ccc(C(F)(F)F)cc2)C(c2ccccc2)c2c[nH]nc2N1 (configuration not stated)	
40.2	4.97	4.71	4.26	5.85	CN(C)c1ccc(-c2nc3cc(Cl)cnc3[nH]2)cc1	
0.029	> 50	0.94	3	2.1	CCC(c1nc2cc(Cl)ccc2c(=O)n1Cc1ccccc1)N(CCCN(C)C)C(=O)c1ccc(Br)cc1 (configuration not stated) [CK0106023]	
5.47	> 50	> 50			CCOC(=O)C1=C(C)NC(=S)NC1c1cccc(O)c1 (configuration not stated) [MONASTROL]	
